These results are taken from patent US20090197906A1, “REVERSION OF MALIGNANT PHENOTYPE WITH 9-HYDROXY ELLIPTICINE DERIVATIVES” (priority 2006, published 2009).

Series [1] concerns NIH 3T3 EF. The series is described as follows: MTT cell proliferation assay. Format: cell-based. Conditions: 3 days, read-out: Cytotoxic effect (MTT) IC50. Here is the method: (§1) Growth studies were performed using the [3-(4,5 dimethylthiazol-2-yl)-2,5-diphenyl-2H-tetrazolium bromide] (Sigma) calorimetric assay.
(§2) About 1500 to 5000 cells, according to the cell line, were seeded in a 96-well culture plate 24 hours before adding increasing concentrations of BA016DD537 or BA016FZ539. The plate was incubated at 37° C. for 3 days. 10 μl MTT stock solution (5 mg/ml in phosphate buffer saline) was added to 90 μl of complete medium in each well, the incubation was continued for 3 h at 37° C. 100 μl of lysis buffer (10% sodium dodecyl sulfate, 1% HCl 1N; pH 4.7) was added to each well, and the plate was incubated overnight. The absorbance was determined using an Integrated EIA Management System (Labsystem) at a wavelength of 570 nm. The proliferation rates were calculated from the OD readings using the untreated cells as 100%.

The subject of series [2] is B16F10. The series is described as follows: cloning assay in methylcellulose (colony formation). Format: cell-based, murine. Here is the method: (§3) Cells were embedded in complete culture medium supplemented with 0.8% methylcellulose (Methocel MC4000, Sigma), seeded in triplicate into 35-mm dishes (Greiner Bio-one Ref 627102, Dominique Dutscher) and incubated at 37° C. in a humidified 5% CO2 atmosphere. The number of cells seeded was 1000 cells per dish. After one to three weeks, according to cell lines, macroscopic clones were counted.
Cells were embedded in complete culture medium supplemented with 0.8% methyl-cellulose (Methocel MC4000, Sigma), seeded in triplicate into 35-mm dishes and incubated at 37° C. in a humidified 5% CO2 atmosphere. The number of cells seeded was 1000 cells per dish. After 9 days, macroscopic clones of murine melanoma cell line B16F10 were counted.

For series [3], the system named is Melanoma B16 cells. The series is described as follows: antitumor activity, i.p. grafted B16 melanoma, survival. Format: in vivo, B6D2F1 mice. Here is the method:
Antitumor activity against B16 melanoma can be assessed in mice using i.p. graft of malignant cells followed by i.p. treatment. This type of protocol which by-pass various biodisponibility parameters gives information roughly on the maximal antitumor activity which can be expected for a given tumor.
Melanoma B16 cells (4×10^5) were injected in B6D2F1 mice using i.p. route at J0. Drugs, dissolved in sterile distilled water (0.5 ml) were injected daily using as well i.p. route from J1 to J9 at various concentrations. Control mice received distilled water only according the same protocol.
Treated and control mice were counted daily. TIC (mean survival of treated mice/mean survival of control mice) was calculated at J9.

In series [4] the test system is B16F10. The series is described as follows: MTT cell proliferation assay. Type of series: cell-based, murine. Here is the method: as §1, §2
Growth studies were performed using both MTT and SRB calorimetric assay (Sigma). About 1500 B16F10 or 3000 pancreatic cells (MIA PaCa-2 and PANC1) were seeded in a 96-well culture plate before adding increasing concentrations of monomesylate or bimesylate.
The plates were incubated at 37° C. for 3 days and then were treated depending on SRB or MTT protocols (see material and methods).
In these two cases, the proliferation rates were calculated from the OD readings using the untreated cells as 100%.

For series [5], the system named is NIH 3T3 EF. The series is described as follows: cloning assay in methylcellulose (colony formation). Type of series: cell-based. The conditions noted are these: read-out: Inhibition of colony formation (methylcellulose) IC50. The method, then: as §3
In series [6] the test system is B16F10 melanoma cells. The series is described as follows: wound healing assay (cell motility). Type of series: cell-based, murine. The conditions noted are these: 50 nM. The method, then: Wound healing assay was performed to evaluate the effect of BA016DD537 on motility of malignant NIH 3T3 EF cells and melanoma cell lines B16F10 and B16BL6. All the cells were incubated at 37° C. in a humidified 5% CO2 atmosphere. About 100 000-200 000 cells were seeded in a 6-well culture plate and BA016DD537, at the different concentrations, was added 24 hours later. Cells were grown for 3 days to confluence about 90-95% and small scratch-wounds (about 200 μm-1 mm width) were made with a pipette tip. Cell debris were removed, then the cultures were incubated in complete medium for 10 h in the presence of the same concentration of BA016DD537. Then, the cells were fixed for 10 min in PBS containing 3.7% formaldehyde at 4° C.

In series [7] the test system is SK-N-MC. The series is described as follows: MTT cell proliferation assay. Type of series: cell-based. The conditions noted are these: 3 days, read-out: Cytotoxic effect (MTT) IC50. The method, then: as §1, §2
Series [8] relates to B16BL6. The series is described as follows: MTT cell proliferation assay. Type of series: cell-based. Conditions: B16BL6, 3 days; read-out: Cytotoxic effect (MTT) IC50. Here is the method: as §1, §2
Series [9] deals with SK-N-MC. The series is described as follows: cloning assay in methylcellulose (colony formation). Type of series: cell-based. Conditions: read-out: Inhibition of colony formation (methylcellulose) IC50. The method, then: as §3
For series [10], the system named is B16BL6. Described as above. Type of series: cell-based. The conditions noted are these: read-out: Inhibition of colony formation (methylcellulose) IC50. Here is the method:
as §3

In series [11] the test system is PANC-1 cell line. The series is described as follows: morphological changes under microscopic observation (phenotype reversal). Type of series: cell-based, human. The source says: (§4) Changes in configuration and number of pancreatic cell lines were observed under microscopic observation (FIG. 5).
Series [12] concerns MIA PaCa-2 cells. The description is as above. Format: cell-based, human. The conditions noted are these: 4 μM for 3 days.
From the text: as §4

The test system of series [13] is A375. The series is described as follows: cloning assay in methylcellulose (colony formation). Format: cell-based, human. Conditions: read-out: Inhibition of colony formation (methylcellulose) IC50. Here is the method:
as §3

In series [14] the test system is SKMEL28. The description is as above. Format: cell-based, human. The conditions noted are these: read-out: Inhibition of colony formation (methylcellulose) IC50. Here is the method:
as §3

In series [15] the test system is HT144. The series is described as above. Format: cell-based, human. Conditions: read-out: Inhibition of colony formation (methylcellulose) IC50. Here is the method:
as §3

Series [16] concerns C9. Described as above. Conditions: read-out: Inhibition of colony formation (methylcellulose) IC50. Format: cell-based, human. The method, then: as §3
Series [17] has as its system PANC-1. The description is as above. Format: cell-based, human. Conditions: read-out: Inhibition of colony formation (methylcellulose) IC50. The method, then: as §3
Series [18] deals with 451 Lu. The description is as above. Format: cell-based, human. Conditions: read-out: Inhibition of colony formation (methylcellulose) IC50. The method, then: as §3
In series [19] the test system is Mia Paca-2. The series is described as above. Format: cell-based, human. The conditions noted are these: read-out: Inhibition of colony formation (methylcellulose) IC50. Here is the method:
as §3

The test system of series [20] is 1205 Lu. Described as above. Format: cell-based, human. Conditions: read-out: Inhibition of colony formation (methylcellulose) IC50. Here is the method: as §3

Take `Cc1c2cc[n+](CCN3CCCCC3)cc2c(C)c2c1[nH]c1ccc(O)cc12.[Cl-]` [BA016DD537, 2-(β-piperidinoethyl)-9-hydroxyellipticinium chloride]: the IC50 turned out to be 400 nM in series [1]; 35 nM in series [2] (B16F10, read-out: Inhibition of colony formation (methylcellulose) IC50); 500 nM in [4] (B16F10, 3 days, read-out: Cytotoxic effect (MTT) IC50); 30 nM in [5]. Further, the “T/C (%) (mean survival of treated mice/mean survival of control mice)” value in series [3] (0.39 mg/kg/inj. i.p. daily J1 to J9) was 133%; in series [3] (0.78 mg/kg/inj. i.p. daily J1 to J9), 149%; in [3] (1.56 mg/kg/inj. i.p. daily J1 to J9), 168%; in series [3] (3.12 mg/kg/inj. i.p. daily J1 to J9) it was 217%; in series [3] (6.25 mg/kg/inj. i.p. daily J1 to J9), 196%; in series [3] (7.5 mg/kg/inj. i.p. daily J1 to J9), 210%. Also, in series [3] (10 mg/kg/inj. i.p. daily J1 to J9), the “T/C (%) (mean survival of treated mice/mean survival of control mice)” value was 87%. The “antitumor activity against B16 melanoma (T/C>125% = significant)” value in series [3] (i.p. graft, i.p. treatment) is recorded as “marked antitumor activity”. Also, in series [6], the “inhibition of cell migration” value was “complete inhibition”.

Regarding `CS(=O)(=O)[O-].Cc1c2cc[n+](CCN3CCCCC3)cc2c(C)c2c1[nH]c1ccc(O)cc12` [BA016FZ539, 2-(betapiperidino-2-ethyl)-9-hydroxyellipticinium methanesulfonate], the 50% inhibitory concentration (IC50) in [7] is 840 nM; in [8] it was 212 nM; in series [2] (B16F10, clones counted after 9 days (Example 11), listed as Monomesylate, read-out: B16F10 Inhibition of colony formation IC50), 67 nM; in [4] (B16F10 (Example 11), read-out: IC50 (MTT Test-72 h)), 2000 nM; in series [9], 205 nM; in series [10] it was 29 nM. Also, the half-inhibitory concentration (IC50) in series [13] came to 97 nM; in series [14] it was 515 nM; in series [15], 125 nM; in [16], 132 nM; in series [17], 4300 nM; in series [18], 2000 nM. Moreover, the IC50 in series [19] stood at 640 nM; in series [20] it was 247 nM. In addition, the “reversal of the transformed phenotype (cell morphology)” value in series [11] is “not in PANC-1 cell line”; in series [12], “reversal from the transformed phenotype (FIG. 5, A) to a normal phenotype”.
